Publication PMC3440086, “Profiling Environmental Chemicals for Activity in the Antioxidant Response Element Signaling Pathway Using a High Throughput Screening Approach” (Environmental Health Perspectives, 2012)
Where two headings read alike, the source gives them in different places.

Columns and labels:
[1] = system: antioxidant response element (ARE) signaling pathway; assay: ARE-bla β-lactamase reporter gene assay in HepG2 cells (qHTS); type: cell-based, human
[2] = system: Nrf2-dependent ARE transcriptional activity; assay: ARE-luc luciferase reporter gene assay in HepG2 cells (qHTS); type: cell-based; conditions: for Emax: read-out: ARE-luc Efficacy
[3] = system: mutated ARE; type: cell-based; conditions: for activity in ARE-bla-mut assay (words): follow-up studies, up to 46 µM
[4] = confirmation/follow-up studies, HepG2, 16 hr exposure, mean ± SD
[5] = follow-up studies, up to 46 µM, listed as chlorambucil
[6] = confirmation/follow-up studies, HepG2, mean ± SD
[7] = Homo sapiens, HepG2, confirmation/follow-up studies, activation of ARE reporter as % of positive control (β-napthoflavone), read-out: ARE-bla Efficacy
[8] = Homo sapiens, confirmation/follow-up studies, HepG2, 16 hr exposure, mean ± SD, read-out: ARE-bla EC50
[9] = primary qHTS screening, 0.59 nM to 92 µM
[10] = Homo sapiens, HepG2, confirmation/follow-up studies, activation of ARE reporter as % of positive control (β-napthoflavone)
[11] = Homo sapiens, confirmation/follow-up studies, HepG2, 16 hr exposure, mean ± SD, read-out: ARE-luc EC50
[12] = confirmation/follow-up studies, HepG2, 16 hr exposure, mean ± SD, read-out: ARE-bla EC50
[13] = confirmation/follow-up studies, activation of ARE reporter as % of positive control (β-napthoflavone)
[14] = confirmation/follow-up studies, HepG2, 16 hr exposure, mean ± SD, read-out: ARE-luc EC50
[15] = Homo sapiens, HepG2, confirmation/follow-up studies, […], read-out: ARE-bla Efficacy
[16] = Homo sapiens, HepG2, confirmation/follow-up studies, […]
[17] = confirmation/follow-up studies, […]
[18] = follow-up studies, up to 46 µM, listed as melphalan

O=C(O)CCCc1ccc(N(CCCl)CCCl)cc1 [Chlorambucil, reference compound]
ARE-bla EC50 [1, 4]: inactive
activity in ARE-bla assay (words) ([1]; follow-up studies, up to 46 µM): inactive in all assays
activity in ARE-bla assay (words) [1, 5]: inactive across all assays
ARE-luc EC50 [2, 4]: inactive
activity in ARE-luc assay (words) ([2]; follow-up studies, up to 46 µM): inactive in all assays
activity in ARE-luc assay (words) [2, 5]: inactive across all assays
ARE-bla mutant IC50 [3, 6]: inactive
activity in ARE-bla-mut assay (words) [3]: inactive in all assays
activity in ARE-bla-mut assay (words) ([3]; listed as chlorambucil): inactive across all assays

O=C(O)C1C(C(=O)O)C2(Cl)C(Cl)=C(Cl)C1(Cl)C2(Cl)Cl (stereo not shown) [Chlorendic acid]
ARE-bla EC50 [1]: inactive
ARE-luc EC50 [2]: inactive
ARE-bla mutant IC50 [3]: inactive

COc1cc(/C=C/C(=O)CC(=O)/C=C/c2ccc(O)c(OC)c2)ccc1O [Curcumin]
Emax [1, 7]: 21%
EC50 [1, 8]: 3.2 ± 3.2 µM
activity in ARE-bla assay (words) [1, 9]: high-quality active
Emax [2, 10]: 165%
EC50 [2, 11]: 10.8 ± 0.7 µM
activity in ARE-luc assay (words) [2, 9]: high-quality active
ARE-bla mutant IC50 [3, 6]: inactive

O=C1c2ccccc2C(=O)C1c1ccc2ccccc2n1 [D & C Yellow II]
EC50 [1, 12]: 0.7 ± 0.1 µM
ARE-bla Efficacy [1, 13]: 88%
EC50 [2, 14]: 1.2 ± 0.7 µM
ARE-luc Efficacy [2, 13]: 185%
ARE-bla mutant Efficacy ([3]; confirmation/follow-up studies, normalized to DMSO (0%) and ARE-bla maximal β-napthoflavone response (100%)): 48%
activity in ARE-bla-mut assay (words) [3]: may exhibit autofluorescence

CN1CSC(=S)N(C)C1 [Dazomet]
Emax [1, 15]: 55%
EC50 [1, 8]: 20.1 ± 6.6 µM
Emax [2, 16]: 22%
EC50 [2, 11]: 26.6 ± 2.2 µM
ARE-bla mutant IC50 [3, 6]: inactive

ClC1=C(Cl)[C@]2(Cl)[C@@H]3[C@@H]4C[C@@H]([C@H]5O[C@@H]45)[C@@H]3[C@@]1(Cl)C2(Cl)Cl [Dieldrin]
Emax [1, 15]: 40%
EC50 [1, 8]: 15.5 ± 11.8 µM
Emax [2, 16]: 27%
EC50 [2, 11]: 14.2 ± 15 µM
ARE-bla mutant IC50 [3, 6]: inactive

O=c1cc(-c2ccccc2)oc2ccccc12 [Flavone]
Emax [1, 7]: 80%
EC50 [1, 8]: 2.4 ± 0.6 µM
Emax [2, 10]: 47%
EC50 [2, 11]: 7.6 ± 0.5 µM
ARE-bla mutant IC50 [3, 6]: inactive

c1ccc2c(c1)-c1cccc3cccc-2c13 [Fluoranthene]
ARE-bla EC50 [1]: inactive
ARE-luc EC50 [2]: inactive
ARE-bla mutant IC50 [3]: inactive

C/C=C1/C(=O)C[C@H]2[C@@H]3CCC4=CC(=O)CC[C@]4(C)[C@H]3CC[C@]12C [Guggulsterones E]
ARE-bla Efficacy [1]: 106
EC50 ([1]; read-out: ARE-bla EC50): 5 ± 3.1 µM
ARE-luc Efficacy [2]: 115
EC50 ([2]; read-out: ARE-luc EC50): 15.4 ± 2.6 µM
ARE-bla mutant IC50 [3]: inactive

[Cl][In]([Cl])[Cl] [Indium trichloride]
EC50 [1, 12]: 14.8 ± 4.9 µM
ARE-bla Efficacy [1, 17]: 92%
EC50 [2, 14]: 25 µM
ARE-luc Efficacy [2, 17]: 312%
ARE-bla mutant IC50 [3, 6]: inactive

C[S@@+]([O-])CCCCN=C=S [L-sulforaphane]
activity in ARE-bla assay (words) [1, 9]: active
activity in ARE-luc assay (words) [2, 9]: active

C[C@H](CCC(=O)O)[C@H]1CC[C@H]2[C@@H]3CC[C@@H]4C[C@H](O)CC[C@]4(C)[C@H]3CC[C@]12C [Lithocholic acid]
Emax [1, 7]: 65%
EC50 [1, 8]: 17.7 ± 5.7 µM
Emax [2, 10]: 61%
EC50 [2, 11]: 21.9 ± 8.2 µM
activity in ARE-luc assay (words) ([2]; follow-up studies, up to 46 µM): active
activity in ARE-luc assay (words) [2, 9]: inactive
ARE-bla mutant IC50 [3]: inactive

N[C@@H](Cc1ccc(N(CCCl)CCCl)cc1)C(=O)O [Melphalan, reference compound]
activity in ARE-bla assay (words) ([1]; follow-up studies, up to 46 µM): inactive in all assays
activity in ARE-bla assay (words) [1, 18]: inactive across all assays
activity in ARE-bla assay (words) [1, 9]: showed activity
ARE-luc EC50 [2, 4]: inactive
activity in ARE-luc assay (words) ([2]; follow-up studies, up to 46 µM): inactive in all assays
activity in ARE-luc assay (words) [2, 18]: inactive across all assays
ARE-bla mutant IC50 [3, 6]: inactive
activity in ARE-bla-mut assay (words) [3]: inactive in all assays
activity in ARE-bla-mut assay (words) ([3]; listed as melphalan): inactive across all assays

CCN(CC)c1ccc(N)cc1 [N,N-Diethyl-p-phenylenediamine]
EC50 [1, 12]: 18.7 ± 7.6 µM
ARE-bla Efficacy [1, 17]: 60%
ARE-luc EC50 [2, 4]: inactive
ARE-bla mutant IC50 [3, 6]: inactive

CC(C)Nc1ccc(Nc2ccccc2)cc1 [N-Isopropyl-N'-phenyl-p-phenylenediamine]
EC50 ([1]; Homo sapiens, HepG2, 16 h, read-out: ARE-bla EC50): 13.1 ± 8.9 µM
Emax ([1]; Homo sapiens, HepG2, read-out: ARE-bla Efficacy): 71%
ARE-bla mutant IC50 [3]: inactive

Oc1ccc(/C=C/c2cc(O)cc(O)c2)cc1 [resveratrol]
activity in ARE-bla assay (words) [1, 9]: active
activity in ARE-luc assay (words) [2, 9]: active

O=c1cc(-c2ccccc2)oc2ccc3ccccc3c12 [β-Napthoflavone, reference compound]
EC50 ([1]; primary screening, positive control across all 18 plates, read-out: average EC50 in ARE-bla assay): 2.1 µM
EC50 ([2]; primary screening, positive control across all 18 plates, read-out: average EC50 in ARE-luc assay): 5.2 µM
